According to patent US20190381337A1, “BORON NEUTRON CAPTURE THERAPY SYSTEM” (NEUBORON MEDTECH LTD., priority 2016, published 2019):

Tests used:
U343mga cells [1] = experiment: Cell uptake of boron compounds (Example 2); assay type: cell-based, human; conditions: for boron content expressed as a function of the total cellular protein, Trial 1 / boron content expressed as a function of the total cellular protein, Trial 2: 6 hours incubation, 5×10^−4 mol/L boron; for boron content expressed as a function of the total cellular protein, Trial 1: 7.2 μg boron/mL media; for boron content expressed as a function of the total cellular protein, Trial 2: 7.7 μg boron/mL media
Description: (§1) An in vitro test of the Phe-BF3 of the Example 1 uses four different human-derived tumor cell lines U343mga, human liver cancer cell line Hep3B, human breast cancer cell line MCF7 and human Sarcoma cell line 4SS. Cells were plated on uncoated tissue culture dishes and incubated at 37° C. in an incubator with humidified air equilibrated with 5% CO2 (the medium was supplemented with 10% FCS and PEST (Penicillin 100 IU/mL and streptomycin […])). For cell passage, cells were trypsinized with trypsin-EDTA (phosphate buffered saline (PBS) with 0.25% trypsin and 0.02% EDTA, no calcium and magnesium).
U343mga cells were plated on Petri dishes at a cell density of 75% and incubated for 6 hours with 1,4-dihydroxyborylphenylalanine (BPA) or Phe-BF3 dissolved in tissue culture medium. Both boron-containing compounds were added at an equimolar concentration relative to the boron content (5×10^−4 mol/L boron) and dissolved in tissue culture medium. Incubation was terminated by removing the boron containing tissue culture medium and adding cold phosphate buffered saline solution (PBS buffer) in order to wash away excess medium from the cells. Cells were immediately harvested by scooping off from the petri dishes using rubber policeman, and collected in cold PBS and pelleted by centrifugation.
Total protein analysis was performed on cell samples according to the Bradford standard procedure. The precipitated cells were subjected to boron analysis by DC-plasmon atomic emission spectroscopy (DCP-AES). The sample (50-130 mg) was digested with sulfuric acid/nitric acid (1/1) at 60° C. Triton X-100 and water were added to give concentrations of 50 mg tissue/mL, 15% total acid v/v, and 5% Triton X-100 v/v. The boron concentration is based on known control sample.

U343mga cells [2] = experiment: Intracellular retention of boron (Example 4); assay type: cell-based, human; conditions: for Boron content in U343mga cells, 0 h after removal of the boron-containing medium / Boron content in U343mga cells, 2 h after removal of the boron-containing medium / Boron content in U343mga cells, 7 h after removal of the boron-containing medium: 18 hours incubation, 5×10^−4 mol/L boron
Description: U343mga cells were plated on Petri dishes at a cell density of 75% and incubated for 18 hours with 1,4-dihydroxyboron-phenylalanine (BPA) or Phe-BF3 in tissue culture medium. Both boron compounds were added to the tissue culture medium at equimolar concentrations relative to the boron content (5×10^−4 mol/L boron). The incubation was terminated by replacing the boron-containing medium with a boron-free medium. Cell samples were taken at time points 0, 2 and 7 hours, respectively, where the 0 time point represented the time point when the incubation with the boron compound reached just 18 hours.
The cells were washed with cold PBS and immediately harvested by scooping off from the petri dish using rubber policeman, and collected in cold PBS and pelleted by centrifugation. The cell pellets were analyzed for total protein and boron content as described above. With intracellular uptake, the compound of formula (I) retained in the tumor cells was 50% of the total uptake at 7 h after the complete consumption of Ia in the medium.

U343mga = experiment: Uptake of Phe-BF3 by different tumor cells (Example 3); assay type: cell-based, human
Description: as §1
(§2) Four human-derived, different tumor cell lines: U343mga, Hep3B, MCF7, and 4SS were plated on Petri dishes at 40-50% (low) and 90-100% (high) cell densities, and incubated with Phe-BF3 in tissue culture as described above for 6 hours. Incubation was terminated by removing the boron-containing media and adding cold PBS buffer to wash excess media from the cells. Cells were immediately harvested by scooping off from the petri dishes using rubber policeman, and collected in cold PBS and pelleted by centrifugation. Total protein analysis was performed on cell samples according to the Bradford standard procedure (as described above).

[3] = system: human Sarcoma cell line 4SS; experiment: as above; assay type: cell-based; conditions: 6 hours
Description: as §1, §2

[4] = system: human breast cancer cell line MCF7; experiment: as above; assay type: cell-based; conditions: 6 hours
Description: as §1, §2

[5] = system: human liver cancer cell line Hep3B; experiment: as above; assay type: cell-based; conditions: 6 hours
Description: as §1, §2

[6] = system: mouse fibroblast L-929 cells; experiment: Cytotoxicity study, MTT colorimetry (Example 5); assay type: cell-based; conditions: for Relative cell proliferation RGR: 5 mmol/L, MTT
Description: The cell culture fluid containing the peptide bovine serum was incubated at 37 C for 24 hours. The passage cultured mouse fibroblast L-929 cells were used to prepare a cell suspension of 1×10^5 cells/mL, and the cell suspension was seeded on a 96-well cell culture plate (100 μl/well) and cultured in a carbon dioxide incubator at 37° C. for 24 hours. After the cells adhere to the wall, the supernatant was removed, the control solution (in absence of compound Ia) was added, and the culture solution of the test group (Phe-BF3 concentration of 5 mmol/L) was exchanged, and the culture was continued in the carbon dioxide incubator at 37° C. After 2 days, MTT solution was added to continue culture for 4 hours. The original solution was aspirated and DMSO was added and shaken for 10 min. The absorbance value was measured with an enzyme-linked immunometric instrument at a wavelength of 630 nm, and the relative proliferation rate (RGR) of the cells was calculated according to the absorbance according to the formula.

| SMILES | boron content expressed as a function of the total cellular protein, Trial 1 (U343mga cells [1]) | boron content expressed as a function of the total cellular protein, Trial 2 (U343mga cells [1]) | Boron content in U343mga cells, 0 h after removal of the boron-containing medium (U343mga cells [2]) | Boron content in U343mga cells, 2 h after removal of the boron-containing medium (U343mga cells [2]) | Boron content in U343mga cells, 7 h after removal of the boron-containing medium (U343mga cells [2]) | boron uptake compared with BPA (U343mga cells [1]; 6 hours) | boron content as a function of the total cellular protein, low cell density (U343mga; U343mga, 40-50% cell density, 6 hours) | boron content as a function of the total cellular protein, high cell density (U343mga; U343mga, 90-100% cell density, 6 hours) | efficiency as boron carrier (U343mga; all four human tumor cell lines at low and high cell densities) | boron content as a function of the total cellular protein, low cell density ([3]; 40-50% cell density) | boron content as a function of the total cellular protein, high cell density ([3]; 90-100% cell density) | boron content as a function of the total cellular protein, low cell density ([4]; MCF7, 40-50% cell density) | boron content as a function of the total cellular protein, high cell density ([4]; MCF7, 90-100% cell density) | boron content as a function of the total cellular protein, low cell density ([5]; 40-50% cell density) | boron content as a function of the total cellular protein, high cell density ([5]; 90-100% cell density) | tumor cell uptake, accumulation, and retention compared with BPA (U343mga cells [2]; summary of Examples 2-4, in vitro) | Relative cell proliferation RGR ([6]; 2 days) | Relative cell proliferation RGR ([6]; 7 days) | cytotoxicity assessment ([6]; graded by RGR (Table 5)) |
| --- | --- | --- | --- | --- | --- | --- | --- | --- | --- | --- | --- | --- | --- | --- | --- | --- | --- | --- | --- |
| N[C@@H](CC1(BO)C=CC(BO)=CC1)C(=O)O (stereo partly drawn) [BPA, 1,4-dihydroxyborylphenylalanine, reference compound] | 62 | 39 | 0.072 μg boron/g cell pellet | 0 μg boron/g cell pellet | 0 μg boron/g cell pellet |  |  |  |  |  |  |  |  |  |  |  |  |  |  |
| [NH3+]C(Cc1ccccc1)[B-](F)(F)F (stereo not drawn) [Phe-BF3] | 549 | 421 | 0.83 μg boron/g cell pellet | 0.56 μg boron/g cell pellet | 0.41 μg boron/g cell pellet | better than boron phenylalanine (BPA) in boron uptake | 102 μg boron/g cell protein | 178 μg boron/g cell protein | highly efficient boron carrier | 255 μg boron/g cell protein | 343 μg boron/g cell protein | 101 μg boron/g cell protein | 167 μg boron/g cell protein | 149 μg boron/g cell protein | 207 μg boron/g cell protein | superior to BPA in tumor cell uptake, accumulation, and retention | 123% | 102% | no signs of toxicity |
